Results: patent US11155525B2 (Sanford Burnham Prebys Medical Discovery Institute, priority 2015, dated 2021)

Target: T1, human apelin receptor (Homo sapiens, UniProt P35414)
T1 construct: host or cells: CHO cells
T1 sequence (P35414 1-380): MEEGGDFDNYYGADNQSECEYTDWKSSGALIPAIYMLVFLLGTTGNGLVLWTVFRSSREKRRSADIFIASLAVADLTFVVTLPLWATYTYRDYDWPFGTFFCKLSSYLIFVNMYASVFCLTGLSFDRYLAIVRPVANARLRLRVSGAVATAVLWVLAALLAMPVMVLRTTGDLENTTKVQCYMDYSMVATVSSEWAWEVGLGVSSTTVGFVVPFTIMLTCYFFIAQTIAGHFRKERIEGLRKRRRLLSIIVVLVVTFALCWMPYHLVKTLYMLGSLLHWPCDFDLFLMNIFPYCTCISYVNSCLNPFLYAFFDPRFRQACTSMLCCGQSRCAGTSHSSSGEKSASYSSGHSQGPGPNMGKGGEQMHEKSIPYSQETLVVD
Assay: Measurement of apelin receptor agonist activity (cell-based assay determining the amount of intracellular cAMP)
Conditions: CHO cells stably expressing the human apelin receptor, Forskolin 10 μM, 30 minutes, 100% efficacy = [Pyr1]-apelin-13 0.300 μM, concentration giving 50% efficacy
How it was run: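 CHO cells stably expressing the receptor were treated for 30 min with compound ([…], 3-fold, 11 points; 0.3% DMSO) together with 10 μM forskolin. cAMP was measured by chemiluminescent lysate assay. Efficacy was scaled from forskolin alone (0%) to 0.300 μM [Pyr1]-apelin-13 plus forskolin (100%), and dose-response curves were fitted.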

EC50 [µM]	Structure (SMILES)
0.503	COC(=O)[C@@H]1CCCN1C(=O)/C=C/c1nnc(-c2ccc(C)o2)n1-c1c(OC)cccc1OC [Example 90, Methyl 1-{(2E)-3-[4-(2,6-dimethoxyphenyl)-5-(5-methylfuran-2-yl)-4H-1,2,4-triazol-3-yl]prop-2-enoyl}-L-prolinate]
0.351	COC(=O)[C@@H]1C[C@@H](O)CN1C(=O)/C=C/c1nnc(-c2ccc(C)o2)n1-c1c(OC)cccc1OC [Example 91, Methyl (4R)-1-{(2E)-3-[4-(2,6-dimethoxyphenyl)-5-(5-methylfuran-2-yl)-4H-1,2,4-triazol-3-yl]prop-2-enoyl}-4-hydroxy-L-prolinate]
0.166	COc1cccc(OC)c1-n1c(/C=C/C(=O)N2C[C@H](O)C[C@H]2C(=O)O)nnc1-c1ccc(C)o1 [Example 92, (4R)-1-{(2E)-3-[4-(2,6-Dimethoxyphenyl)-5-(5-methylfuran-2-yl)-4H-1,2,4-triazol-3-yl]prop-2-enoyl}-4-hydroxy-L-proline]
0.364	COc1cccc(OC)c1-n1c(/C=C/C(=O)N2CCC[C@H]2C(=O)O)nnc1-c1ccc(C)o1 [Example 93, 1-{(2E)-3-[4-(2,6-Dimethoxyphenyl)-5-(5-methylfuran-2-yl)-4H-1,2,4-triazol-3-yl]prop-2-enoyl}-L-proline]
0.071	COc1cccc(OC)c1-n1c(SCc2nc(=O)o[nH]2)nnc1-c1ccc(C)o1 [Example 94, 3-({[4-(2,6-Dimethoxyphenyl)-5-(5-methylfuran-2-yl)-4H-1,2,4-triazol-3-yl]sulfanyl}methyl)-1,2,4-oxadiazol-5(2H)-one]
0.006	COc1cccc(OC)c1-n1c(SCC(=O)NS(=O)(=O)c2ccccc2)nnc1-c1ccc(C)o1 [Example 95, 2-{[4-(2,6-Dimethoxyphenyl)-5-(5-methylfuran-2-yl)-4H-1,2,4-triazol-3-yl]sulfanyl}-N-(phenylsulfonyl)acetamide]
0.605	COc1cccc(OC)c1-n1c(SCP(=O)(OC(C)C)OC(C)C)nnc1-c1ccc(C)o1 [Example 96, Dipropan-2-yl ({[4-(2,6-dimethoxyphenyl)-5-(5-methylfuran-2-yl)-4H-1,2,4-triazol-3-yl]sulfanyl}methyl)phosphonate]
0.273	CCOC(=O)C(=O)NCc1nnc(-c2ccc(C)o2)n1-c1c(OC)cccc1OC [Example 97, Ethyl ({[4-(2,6-dimethoxyphenyl)-5-(5-methylfuran-2-yl)-4H-1,2,4-triazol-3-yl]methyl}amino)(oxo)acetate]
1.17	COc1cccc(OC)c1-n1c(CNC(=O)C(=O)O)nnc1-c1ccc(C)o1 [Example 98, ({[4-(2,6-Dimethoxyphenyl)-5-(5-methylfuran-2-yl)-4H-1,2,4-triazol-3-yl]methyl}amino)(oxo)acetic acid]
0.338	COc1cccc(OC)c1-n1c(CNC(=O)c2ccc(C)cc2)nnc1-c1ccc(C)o1 [Example 99, N-{[4-(2,6-Dimethoxyphenyl)-5-(5-methylfuran-2-yl)-4H-1,2,4-triazol-3-yl]methyl}-4-methylbenzamide]
0.957	COc1cccc(OC)c1-n1c(SCc2n[nH]c(=O)[nH]2)nnc1-c1ccc(C)o1 [Example 100, 5-({[4-(2,6-Dimethoxyphenyl)-5-(5-methylfuran-2-yl)-4H-1,2,4-triazol-3-yl]sulfanyl}methyl)-2,4-dihydro-3H-1,2,4-triazol-3-one]
0.587	COc1cccc(OC)c1-n1c(SCc2n[nH]c(=O)o2)nnc1-c1ccc(C)o1 [Example 101, 5-({[4-(2,6-Dimethoxyphenyl)-5-(5-methylfuran-2-yl)-4H-1,2,4-triazol-3-yl]sulfanyl}methyl)-1,3,4-oxadiazol-2(3H)-one]
0.103	COc1cccc(OC)c1-n1c(SCP(=O)(O)O)nnc1-c1ccc(C)o1 [Example 102, ({[4-(2,6-Dimethoxyphenyl)-5-(5-methylfuran-2-yl)-4H-1,2,4-triazol-3-yl]sulfanyl}methyl)phosphonic acid]
0.046	COc1cccc(OC)c1-n1c(SCC2=NOC(=O)C2)nnc1-c1ccc(C)o1 [Example 103, 3-({[4-(2,6-Dimethoxyphenyl)-5-(5-methylfuran-2-yl)-4H-1,2,4-triazol-3-yl]sulfanyl}methyl)-1,2-oxazol-5(4H)-one]
0.048	COc1cccc(OC)c1-n1c(SCc2cc(=O)[nH][nH]2)nnc1-c1ccc(C)o1 [Example 104, 5-({[4-(2,6-Dimethoxyphenyl)-5-(5-methylfuran-2-yl)-4H-1,2,4-triazol-3-yl]sulfanyl}methyl)-1,2-dihydro-3H-pyrazol-3-one]
1.2	COc1cccc(OC)c1-n1c(SCc2ccc(C(N)=O)cc2)nnc1-c1ccc(C)o1 [Example 105, 4-({[4-(2,6-Dimethoxyphenyl)-5-(5-methylfuran-2-yl)-4H-1,2,4-triazol-3-yl]sulfanyl}methyl)benzamide]
0.793	COc1cccc(OC)c1-n1c(SCc2cccc(C(N)=O)c2)nnc1-c1ccc(C)o1 [Example 106, 3-({[4-(2,6-Dimethoxyphenyl)-5-(5-methylfuran-2-yl)-4H-1,2,4-triazol-3-yl]sulfanyl}methyl)benzamide]
0.668	COc1cccc(OC)c1-n1c(CNS(=O)(=O)c2ccc(C)cc2)nnc1-c1ccc(C)o1 [Example 107, N-{[4-(2,6-Dimethoxyphenyl)-5-(5-methylfuran-2-yl)-4H-1,2,4-triazol-3-yl]methyl}-4-methylbenzenesulfonamide]
